In patent US20240383913A1, “THIOPHENE RING COMPOUND, PREPARATION METHOD THEREFOR AND APPLICATION THEREOF” (CENTER FOR EXCELLENCE IN MOLECULAR CELL SCIENCE, CHINESE …, priority 2021, published 2024):

Columns and labels:
[1] = tested on: hyperlocomotion of the mice induced by MK801; test: Open field test, hyperlocomotion induced by MK801; type: in vivo, C57B6 male mice; conditions: for Distance travelled (cm): 5-minute bin
Protocol: Experimental method: The experimental animals were C57B6 male mice, n=8 in each group. This model used C57B6 mice as experimental animals. Hyperlocomotion of the mice in open field was induced by acute injection of a NMDA antagonist MK801. and modeled to test the inhibitory effect of different compounds on hyperkinesia phenotype induced by MK801. All mouse behavior experiments were carried out during the light period, and the whole process was recorded by the camera and locomotive data were tracked and analyzed by behavioral tracking software. The compounds were administered intraperitoneally. Immediately after the injection, the mice entered the open field and their movement trajectories were recorded by the camera. After 30 minutes, the mice received 0.2 mg/kg of MK801 by intraperitoneal injection and returned to the open field immediately after administration and the movement trajectories were further recorded for 120 minutes. The accumulative travelled distance of the mice was counted in a 5-minute bin. Data statistics were performed using Student-t-test analysis, *p<0.05, ** p<0.01, *** p<0.001, **** p<0.0001.

[2] = target: T1, dopamine D2 receptors (Homo sapiens (Human), UniProt P14416); test: Dopamine D2 receptor β-arrestin2 BRET (recruitment); type: cell-based; conditions: D2 receptor, β-arrestin2 pathway;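 further: cells co-expressing Rluc-fused D2 receptor, GRK2 and GFP2-fused β-arrestin2, BRET read with coelenterazine 400a after adding drug over a concentration series, in duplicate wells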
Protocol: To examine the downstream G protein signaling pathway mediated by dopamine D2 receptors, on the first day, a 6 cm culture dish was used for transfection with 1 μg of dopamine D2 receptors, 1 μg of Gαi1 containing a C-terminal seaweed luciferase (Gαi1-Rluc), 1 μg of Gβ3, 1 μg of Gγ9 containing C-terminal green fluorescent protein (Gγ9-GFP), and 16 μL of PEI. At the same time, in order to examine the downstream β-arrestin2 signaling pathway mediated by dopamine D2 receptors, on the first day, a 6 cm culture dish was used for transfection with 500 μg of dopamine D2 receptors containing C-terminal seaweed luciferase (D2-Rluc), 500 μg of G protein-coupled receptor kinase 2 (GRK2), 2500 μg of β-arrestin2 containing N-terminal green fluorescent protein (GFP2-ARRB2) mixed with 14 μL of PEI. The next day, the confluent cells of a 6 cm culture dish were digested and reseeded into a 96-well plate with 100 μL of culture medium added to each well. On the third day, the drugs were added for test. The 96-well plate was taken out from the cell incubator to decant the culture medium, 40 μL of the substrate coelenterazine 400a (final concentration of 5 μM) was added to each well, and then 20 μL of different drugs were added sequentially from left to right to ensure that the final concentration of the drug decreased gradually from bottom to top, with two replicates per treatment. Finally, the prepared samples were loaded on machine for test. The machine readout value reflected the recruitment of β-arrestin2 to the membrane or the dissociation of G protein trimer. The former indicated the degree of activation of the β-arrestin2 signaling pathway downstream of the dopamine D2 receptors, and the latter indicated the degree of activation of the G protein signaling pathway downstream of the dopamine D2 receptors.

[3] = tested on: restraint-induced depression-like behaviors; test: Tail suspension test after 5-hour restraint; type: in vivo, C57B6 male mice; conditions: for Immobility time (seconds), tail suspension test: 5 hour restraint
Protocol: The experimental animals were C57B6 male mice, n=8 in each group. 5-hour restraint were used to develop depression-like behavioral representations of the mice, then the effects of the compounds on their “depression-like” behaviors were measured according to behavioral performance in tail suspension test and forced swimming test. The specific experimental procedures were as follows: Firstly, the mice were restrained using a mouse fixator for tail vein injection. During the restraint process, all movement abilities of the mice were restricted under the condition of introducing minimal pain to the mice. Compounds were administered intraperitoneally twice, before and after restraint, respectively. After compound administration, the mice returned to the cage to recover for 30 minutes. After 30 minutes recovery, the mice in different groups were subjected to tail suspension test or forced swimming test to measure their “depression-like” behaviors.
Tail suspension test: mouse tails were fixed a cantilever arm on an iron rack using adhesive tape, and the mouse was maintained in a suspension position for 6 minutes. The first 2 minutes were the adaptation period and no data collection was performed. Subsequently, the mouse's immobility behavior was recorded intermittently for the remaining 4 minutes. The duration of immobility was measured to assess the level of behavioral despair in the mice. Data statistics were performed using Student-t-test analysis, *p<0.05, ** p<0.01, *** p<0.001, **** p<0.0001.

[4] = target: T1, dopamine D2 receptors; test: Affinity for dopamine D2 receptors, radioligand competition with [3H]-Methylspiperone; type: binding; conditions: 293T membrane transiently expressing D2
Protocol: The affinity of the compounds of the present disclosure for the dopamine D2 receptors was determined by the method of radioligand competition experiment. In the first step, a cell membrane component containing specific dopamine D2 receptors was prepared. A 10 cm culture dish was used for transfection with 10 ng of the dopamine D2 receptors and 40 μL of polyethylenimine (PEI hereafter). After 48 hours, the 10 cm culture dish was taken out from the cell culture incubator and the cultured cells had expressed the dopamine D2 receptors. A vacuum pump was used to suck off the culture medium, 3 mL of lysis buffer was added to each culture dish, and the cells were placed in a 4° C. cold room for 10 minutes. After the cells were detached, the cells were transferred to a 15 mL centrifuge tube and centrifuged at 1500 rpm for 5 minutes at 4° C., and the supernatant was discarded. The cell pellet was transferred to a tissue homogenizer, and 3 mL of lysis buffer was added and fully ground until the cells were broken. Then, cell suspension was equally aliquoted into several EP tubes, centrifuged at 12000 rpm for 5 minutes at 4° C., and the supernatant was discarded. The precipitate was the cell membrane component containing the dopamine D2 receptors. […] First, a standard binding buffer was added to the cell membrane component containing the dopamine D2 receptors, and the cell membrane was disrupted and resuspended with an electric tissue homogenizer. 30 μL of membrane protein suspension was added to each well of a 96-well plate. Then, 30 μL of different drugs were added to the 96-well plate sequentially from bottom to top to ensure that the final drug concentrations were 10^−5 M, 10^−6 M, 10^−7 M, 10^−8 M, 10^−9 M, and 0 M, with two replicates per treatment. Next, 30 μL of [3H]-Methylspiperone was added to each well of the 96-well plate. The plate was incubated for 2 hours at room temperature in the dark. Detection was conducted. The machine readout value reflected the amount of [3H]-Methylspiperone bound on the membrane, and after further data processing, the affinity Ki values of different compounds for the dopamine D2 receptors were obtained.

T1 sequence (P14416 whole entry, the tested form may be a part): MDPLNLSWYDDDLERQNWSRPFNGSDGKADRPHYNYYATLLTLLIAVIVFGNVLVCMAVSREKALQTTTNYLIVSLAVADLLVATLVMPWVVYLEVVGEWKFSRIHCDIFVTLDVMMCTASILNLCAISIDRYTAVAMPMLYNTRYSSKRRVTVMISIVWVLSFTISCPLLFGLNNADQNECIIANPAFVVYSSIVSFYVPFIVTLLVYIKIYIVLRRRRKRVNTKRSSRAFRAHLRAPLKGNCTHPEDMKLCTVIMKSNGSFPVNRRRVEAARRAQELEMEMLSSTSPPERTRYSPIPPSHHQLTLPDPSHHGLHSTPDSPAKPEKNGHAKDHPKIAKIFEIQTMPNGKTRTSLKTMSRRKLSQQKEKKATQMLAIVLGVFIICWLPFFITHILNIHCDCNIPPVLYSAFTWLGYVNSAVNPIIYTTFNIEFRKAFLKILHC

CN(C)C(=O)N[C@H]1CC[C@H](CCN2CCN3c4cccc5scc(c45)CC3C2)CC1 (single isomer, unassigned; (-)) [(−)-I-27]
Distance travelled (cm) ([1]; (−)-I-27 0.2 mg/kg i.p. + MK801 0.2 mg/kg, 85 minutes after MK801): 471.35 ± 107.44 cm | Distance travelled (cm) ([1]; (−)-I-27 0.2 mg/kg i.p. + MK801 0.2 mg/kg, 90 minutes after MK801): 399.78 ± 105.26 cm | Distance travelled (cm) ([1]; (−)-I-27 0.2 mg/kg i.p. + MK801 0.2 mg/kg, 95 minutes after MK801): 301.32 ± 70.58 cm | Distance travelled (cm) ([1]; (−)-I-27 0.2 mg/kg i.p. + MK801 0.2 mg/kg, 100 minutes after MK801): 268.55 ± 74.28 cm | Distance travelled (cm) ([1]; (−)-I-27 0.2 mg/kg i.p. + MK801 0.2 mg/kg, 105 minutes after MK801): 299.24 ± 98.85 cm | Distance travelled (cm) ([1]; (−)-I-27 0.2 mg/kg i.p. + MK801 0.2 mg/kg, 110 minutes after MK801): 378.85 ± 88.69 cm | Distance travelled (cm) ([1]; (−)-I-27 0.2 mg/kg i.p. + MK801 0.2 mg/kg, 115 minutes after MK801): 236.86 ± 61.21 cm | Distance travelled (cm) ([1]; (−)-I-27 0.2 mg/kg i.p. + MK801 0.2 mg/kg, 120 minutes after MK801): 183.04 ± 51.72 cm | Distance travelled (cm) ([1]; (−)-I-27 0.2 mg/kg i.p., 0 minutes, before MK801): 426.03 ± 34.51 cm | Distance travelled (cm) ([1]; (−)-I-27 0.2 mg/kg i.p., −5 minutes, before MK801): 420.23 ± 44.8 cm | Distance travelled (cm) ([1]; (−)-I-27 0.2 mg/kg i.p., −10 minutes, before MK801): 462.71 ± 40.83 cm | Distance travelled (cm) ([1]; (−)-I-27 0.2 mg/kg i.p., −15 minutes, before MK801): 534.93 ± 50.26 cm | Distance travelled (cm) ([1]; (−)-I-27 0.2 mg/kg i.p., −20 minutes, before MK801): 614.02 ± 31.52 cm | Distance travelled (cm) ([1]; (−)-I-27 0.2 mg/kg i.p., −25 minutes, before MK801): 741.08 ± 56.17 cm | Distance (cm) travelled in 45 minutes ([1]; (−)-I-27 0.4 mg/kg i.p. + MK801 0.2 mg/kg, 0-45 minute interval after MK-801): 4056.3 cm | Distance travelled (cm) ([1]; (−)-I-27 0.4 mg/kg i.p. + MK801 0.2 mg/kg, 5 minutes after MK801): 479.22 ± 57.64 cm | Distance travelled (cm) ([1]; (−)-I-27 0.4 mg/kg i.p. + MK801 0.2 mg/kg, 10 minutes after MK801): 277.07 ± 32.68 cm | Distance travelled (cm) ([1]; (−)-I-27 0.4 mg/kg i.p. + MK801 0.2 mg/kg, 15 minutes after MK801): 316.03 ± 70.39 cm | Distance travelled (cm) ([1]; (−)-I-27 0.4 mg/kg i.p. + MK801 0.2 mg/kg, 20 minutes after MK801): 370.1 ± 75.27 cm | Distance travelled (cm) ([1]; (−)-I-27 0.4 mg/kg i.p. + MK801 0.2 mg/kg, 25 minutes after MK801): 403.74 ± 108.16 cm | Distance travelled (cm) ([1]; (−)-I-27 0.4 mg/kg i.p. + MK801 0.2 mg/kg, 30 minutes after MK801): 584.67 ± 129.63 cm | Distance travelled (cm) ([1]; (−)-I-27 0.4 mg/kg i.p. + MK801 0.2 mg/kg, 35 minutes after MK801): 633.6 ± 143.49 cm | Distance travelled (cm) ([1]; (−)-I-27 0.4 mg/kg i.p. + MK801 0.2 mg/kg, 40 minutes after MK801): 483.45 ± 104.6 cm | Distance travelled (cm) ([1]; (−)-I-27 0.4 mg/kg i.p. + MK801 0.2 mg/kg, 45 minutes after MK801): 508.42 ± 110.56 cm | Distance travelled (cm) ([1]; (−)-I-27 0.4 mg/kg i.p. + MK801 0.2 mg/kg, 50 minutes after MK801): 541.28 ± 85 cm | Distance travelled (cm) ([1]; (−)-I-27 0.4 mg/kg i.p. + MK801 0.2 mg/kg, 55 minutes after MK801): 483.29 ± 71.91 cm | Distance travelled (cm) ([1]; (−)-I-27 0.4 mg/kg i.p. + MK801 0.2 mg/kg, 60 minutes after MK801): 421.36 ± 61.47 cm | Distance travelled (cm) ([1]; (−)-I-27 0.4 mg/kg i.p. + MK801 0.2 mg/kg, 65 minutes after MK801): 371.77 ± 42.78 cm | Distance travelled (cm) ([1]; (−)-I-27 0.4 mg/kg i.p. + MK801 0.2 mg/kg, 70 minutes after MK801): 347.51 ± 55.13 cm | Distance travelled (cm) ([1]; (−)-I-27 0.4 mg/kg i.p. + MK801 0.2 mg/kg, 75 minutes after MK801): 296.62 ± 78.74 cm | Distance travelled (cm) ([1]; (−)-I-27 0.4 mg/kg i.p. + MK801 0.2 mg/kg, 80 minutes after MK801): 244.49 ± 76.54 cm | Distance travelled (cm) ([1]; (−)-I-27 0.4 mg/kg i.p. + MK801 0.2 mg/kg, 85 minutes after MK801): 160.39 ± 34.08 cm | Distance travelled (cm) ([1]; (−)-I-27 0.4 mg/kg i.p. + MK801 0.2 mg/kg, 90 minutes after MK801): 386.57 ± 158.41 cm | Distance travelled (cm) ([1]; (−)-I-27 0.4 mg/kg i.p. + MK801 0.2 mg/kg, 95 minutes after MK801): 201.39 ± 68.43 cm | Distance travelled (cm) ([1]; (−)-I-27 0.4 mg/kg i.p. + MK801 0.2 mg/kg, 100 minutes after MK801): 234.28 ± 63.3 cm | Distance travelled (cm) ([1]; (−)-I-27 0.4 mg/kg i.p. + MK801 0.2 mg/kg, 105 minutes after MK801): 229.02 ± 63.13 cm | Distance travelled (cm) ([1]; (−)-I-27 0.4 mg/kg i.p. + MK801 0.2 mg/kg, 110 minutes after MK801): 210.95 ± 45.58 cm | Distance travelled (cm) ([1]; (−)-I-27 0.4 mg/kg i.p. + MK801 0.2 mg/kg, 115 minutes after MK801): 323.92 ± 121.74 cm | Distance travelled (cm) ([1]; (−)-I-27 0.4 mg/kg i.p. + MK801 0.2 mg/kg, 120 minutes after MK801): 324.23 ± 68.48 cm | Distance travelled (cm) ([1]; (−)-I-27 0.4 mg/kg i.p., 0 minutes, before MK801): 441.97 ± 55.83 cm | Distance travelled (cm) ([1]; (−)-I-27 0.4 mg/kg i.p., −5 minutes, before MK801): 317.51 ± 24.51 cm | Distance travelled (cm) ([1]; (−)-I-27 0.4 mg/kg i.p., −10 minutes, before MK801): 419.17 ± 56.13 cm | Distance travelled (cm) ([1]; (−)-I-27 0.4 mg/kg i.p., −15 minutes, before MK801): 374.1 ± 25.44 cm | Distance travelled (cm) ([1]; (−)-I-27 0.4 mg/kg i.p., −20 minutes, before MK801): 475.66 ± 9.82 cm | Distance travelled (cm) ([1]; (−)-I-27 0.4 mg/kg i.p., −25 minutes, before MK801): 903.06 ± 46.43 cm | β-arrestin2 BRET (Emax %) [2]: (54.79%) | EC50 ([2]; read-out: β-arrestin2 BRET EC50): 10.6 nM | Inhibition of restraint-induced depression-like behaviors ([3]; 0.1 mg/kg and 0.025 mg/kg i.p., tail suspension and forced swimming tests): significantly inhibit | Immobility time (seconds), tail suspension test ([3]; (−)-I-27 0.025 mg/kg i.p.): 87.04 ± 7.69 s | Immobility time (seconds), tail suspension test ([3]; (−)-I-27 0.1 mg/kg i.p.): 54.13 ± 6.99 s | Ki [4]: 120 nM
